Read-outs that look alike come from different tables or passages of the source.
Assays:
Type in all cases: cell-based, human
[1] = system: RPMI8226 cells; test: IC50 of bortezomib and ATBL in RPMI8226 cells; conditions: for IC50: read-out: half maximal inhibitory concentration (IC50)
Protocol: CAG, U266 and RPMI8226 human MM cells; (American Type Culture Collection; ATCC); KMS-11 (originally from the Japanese Collection of Research Bioresource); human MM cells and MPC-11 murine myeloma cell line (kindly provided by Professor Ralph Sanderson, University of Alabama, USA) and HL60 human acute myeloid leukemia (ATCC) were used. Cells were cultured in RPMI-1640 medium supplemented with 10% fetal bovine serum (FBS), supplemented with 1% L-glutamine, 1% sodium pyruvate and 1% pen-strep-neomycin. All cells were cultured at 37° C. in 5% CO2 for no more than 6 months after being thawed from the authentic stocks.
The half maximal inhibitory concentration (IC50) of bortezomib and ATBL was evaluated in RPMI8226 cells.

[2] = system: CAG cells; test: Apoptosis assay (7AAD and Annexin V, flow cytometry); conditions: 48 h; compared to other treatments tested
Protocol: (§1) In another experiment cells were incubated with 10% plasma obtained from vehicle-treated mice, bortezomib-treated mice (at the 24 h time-point) or ATBL-treated mice at 24, 72 and 168 h time-point post administration. Then cell viability and apoptosis status; healthy, early apoptosis, late apoptosis and dead, were determent using 7AAD and Annexin V staining and were used in accordance with the manufacturer's instruction. At least 50,000 events were acquired using a LSRFortessa flow cytometer (BD) and analyzed with FlowJo 10.
(§2) To determine the therapeutic effect of ATBL compared to free bortezomib, a cell viability and apoptosis assay was used. To this end, CAG and RPMI8226 cells were treated with ATBL, bortezomib in naked liposomes, free bortezomib, AMD on empty liposomes, free AMD, empty naked liposomes and vehicle. […] However, the inventors hypothesized that in an in vivo model, ATBL will have better therapeutic efficacy due to its targeting properties.

[3] = system: RPMI8226 cells; test: as above; conditions: 48 h; compared to other treatments tested
Protocol: as §1, §2

With `CC(C)C[C@H](NC(=O)[C@H](Cc1ccccc1)NC(=O)c1cnccn1)B(O)O` [bortezomib, [(1R)-3-methyl-1-[[(2S)-3-phenyl-2-(pyrazine-2-carbonylamino)propanoyl]amino]butyl]boronic acid] the IC50 ([1]; Homo sapiens, RPMI-8226, RPMI8226 cells) was 11 nM, the “IC50 of bortezomib relative to ATBL” value ([1]; RPMI8226 cells) was ~2 fold and the IC50 ([1]; RPMI8226 cells) was 9.13 nM. The late apoptosis [2] was “significant higher late apoptosis” and the late apoptosis [3] was “significant higher late apoptosis”.
